From patent publication US8481597B2, “Use of (-) (3-trihalomethylphenoxy) (4-halophenyl) acetic acid derivatives for treatment of insulin resistance, type 2 diabetes, hyperlipidemia and hyperuricemia” (Metabolex, Inc., priority 1999, dated 2013)
Values joined by “and” are separate entries in the source; they are usually repeats but may differ in a detail not shown here. Equal entries are not always repeated. “Also recorded” adds a separate entry of the source.

Experiments:
C57BL/6J ob/ob mice [1] = assay: Time course of glucose-lowering after a single oral dose in diabetic ob/ob mice (Example 8); type: in vivo; details: single oral dose 250 mg/kg; for time course of glucose-lowering, in words: 250 mg/kg
C57BL/6J ob/ob mice [2] = assay: Glucose and insulin lowering on daily oral administration in diabetic ob/ob mice (Example 9); type: in vivo
Experimental: The gavage volume was 10 ml/kg.

Zucker fa/fa rats [3] = assay: Oral glucose challenge in Zucker fatty rats (Example 10); type: in vivo
Experimental: (§1) Prior to treatment, rats were assigned to 6 groups based on body weight. Each treatment group consisted of 8 rats. […] The gavage volume was 10 ml/kg. All rats received an oral glucose challenge (1.9 g/kg) 5.5 hours after the treatment and 4 hours after withdrawal of the food. Blood samples were taken at 0, 15, 30, 60, 90, 120, and 180 minutes following the glucose challenge for plasma glucose measurement. […] On day 5, rats received the intravenous insulin (0.75 U/kg) 5.5 hours after the last dose and 4 hours after withdrawal of the food. Blood samples were taken at 3, 6, 9, 12, 15 and 18 minutes following the insulin injection for plasma glucose measurement.

Zucker fa/fa rats [4] = assay: Short insulin tolerance test in Zucker fatty rats (Example 10); type: in vivo; details: 50 mg/kg/day oral for 5 days
Experimental: as §1

[5] = system: Zucker diabetic fatty (ZDF) rats; assay: Lipid lowering in Zucker Diabetic Fatty rats (Example 11); type: in vivo; details: for plasma cholesterol, in words: Experiment I, 13 days, racemate 50 mg/kg/day, enantiomers 25 mg/kg/day; for plasma cholesterol lowering, in words / plasma triglyceride, in words: 37.5 mg/kg/day (High dose), 37.5 mg/kg/day
Experimental: Male Zucker diabetic fatty (ZDF) rats were obtained from GMI Laboratories (Indianapolis, Ind.) at 9 weeks of age. Vehicle or enantiomers of halofenate administered by oral gavage on a daily basis starting at 74 days of age. Initial blood samples were obtained for analysis one day before treatment and at the indicated times in the treatment protocol. Blood was analyzed for plasma triglyceride and cholesterol by standard techniques.

ZDF rats = assay: Plasma glucose in ZDF rats, (−) halofenate vs (+) halofenate (Example 13); type: in vivo; details: 50 mg/kg oral once a day for 3 days
Experimental: Male 8-9 week old ZDF rats were purchased from Genetic Models, Inc. (Indianapolis, Ind.). […] Rats that had 4-hour fasting plasma glucose levels between 200 and 500 mg/dL were used. […] The gavage volume was 5 ml/kg. Blood samples were taken at 5 hours post dose on day 2 and 3.

[6] = Pharmacokinetic study of (±) halofenate and (−) halofenate in SD rats (Example 14); type: in vivo; details: single oral (−) halofenate 50 mg/kg, Rats 8, 9, 11 individually, BQL <1.00 μg/mL
Experimental: Male 225-250 g SD rats were purchased from Charles River. […] A catheter was placed in the left carotid artery under sodium pentobarbital (50 mg/kg i.p.) and animals were allowed to recover for 2 days before treatment. […] The gavage volume was 5 ml/kg. Blood samples were collected at 1, 2, 4, 6, 8, 12, 24, 48, 72, 96 and 120 hours post dose. The plasma samples were analyzed for each enantiomeric acid ((−) halofenic acid and (+) halofenic acid) by a chiral specific HPLC assay, since the esters are prodrugs, which are designed to convert to their respective enantiomeric acids in vivo.

C57BL/6J db/db mice = assay: Prevention of diabetes and alleviation of hypertriglyceridemia in db/db mice (Example 15); type: in vivo; details: 150 mg/kg/day in chow for 9 weeks
Experimental: Blood samples were taken at 8-10 AM once a week for 9 weeks under non-fasting condition. Food intake and body weight were measured every 1-3 days. Plasma glucose and triglyceride concentrations were determined colorimetrically using kits from Sigma Chemical Co (No. 315 and No. 339, St. Louis, Mo., USA). Plasma insulin levels were measured using RIA assay kit purchased from Linco Research (St. Charles, Mo.).

[7] = system: oxonic acid induced hyperuricemic rats; assay: Plasma uric acid in oxonic acid induced hyperuricemic rats (Example 17); type: in vivo, SD rats; details: oral 50 mg/kg for 3 days, 100 mg/kg on the 4th day; blood 6 hours post gavage on day 4
From the text: Male SD rats, weight 275-300 g were purchased from Charles River. […] To establish a hyperuricemic state, animals were put on a diet containing 2.5% (w/w) of oxonic acid (Sigma Chemical Co, St. Louis, Mo., USA) throughout the experiment. Oxonic acid elevates plasma uric acid by inhibiting uricase. Rats were screened for plasma uric acid levels 3 days after they were placed on the diet, and those that had extreme plasma uric acid levels were excluded. Rats were assigned to one of three groups and the mean uric acid levels were equivalent in each group. […] Oxonic acid was delivered in a liquid formulation containing 0.9% (w/v) methylcellulose. The gavage and injection volumes were 5 ml/kg. Blood samples were taken at 6 hours post oral gavage on day 4. Plasma uric acid levels were determined colorimetrically using the Infinity Uric Acid Reagent (Sigma Chemical Co, St. Louis, Mo., USA).

[8] = daily oral, racemate 250 mg/kg/day, enantiomers 125 and 250 mg/kg/day
[9] = Experiment II, listed as (−) enantiomer

SMILES: CC(=O)NCCOC(=O)C(Oc1cccc(C(F)(F)F)c1)c1ccc(Cl)cc1 (single isomer, unassigned; (-)) [(−) halofenate, (−) 2-acetamidoethyl 4-chlorophenyl-(3-trifluoromethylphenoxy)acetate]
- earliest time of plasma glucose reduction / significant activity (C57BL/6J ob/ob mice [1]): 1.5 h
- time of peak glucose-lowering activity (C57BL/6J ob/ob mice [1]): 3 h
- time course of glucose-lowering, in words (C57BL/6J ob/ob mice [1]): more rapid onset and sustained longer
- time course of glucose-lowering, in words (C57BL/6J ob/ob mice [1]; listed as (−) enantiomer): most rapid onset of action and the longest duration of action; also recorded: more effective and significantly different (p<0.05) from the (+) enantiomer at both the 3 hour and 24 hour time points
- plasma glucose at 24 hours (C57BL/6J ob/ob mice [1]; vehicle 408±16.2): 217 ± 16.4 mg/dL
- overnight fasting plasma insulin after 5 days treatment, in words (C57BL/6J ob/ob mice [2]; 125 mg/kg/day oral, ob/ob mice): Significantly lower plasma insulins
- time points after first dose with significantly reduced plasma insulin (C57BL/6J ob/ob mice [2]; 125 mg/kg/day oral, ob/ob mice): 27 h
- overnight fasting plasma insulin after 5 days treatment, in words (C57BL/6J ob/ob mice [2]; 250 mg/kg/day oral, ob/ob mice): Significantly lower plasma insulins
- time points after first dose with significantly reduced plasma glucose (C57BL/6J ob/ob mice [2]; 250 mg/kg/day oral, ob/ob mice): 3 h
- time points after first dose with significantly reduced plasma insulin (C57BL/6J ob/ob mice [2]; 250 mg/kg/day oral, ob/ob mice): 27 h and 30 h
- plasma glucose following an overnight fast after 5 days treatment (C57BL/6J ob/ob mice [2]; 250 mg/kg/day oral, ob/ob mice, control 185.4±12.3): 127.3 ± 8.0 mg/dL
- plasma glucose relative to control animals, in words (C57BL/6J ob/ob mice [2]; [8]): Significant decreases in glucose levels
- plasma insulin relative to vehicle control, in words (C57BL/6J ob/ob mice [2]; [8]): insulins were lower
- incremental glucose area under the curve (AUC) relative to vehicle control, in words (Zucker fa/fa rats [3]; racemate 100 mg/kg, enantiomers 50 and 100 mg/kg): significant reductions in the glucose area; also recorded: Significant changes (p<0.05)
- plasma glucose after oral glucose challenge, in words (Zucker fa/fa rats [3]; single oral dose 100 mg/kg 5.5 hours before challenge): greatest degree of glucose-lowering of all the treated animals
- plasma glucose after oral glucose challenge, in words (Zucker fa/fa rats [3]; single oral dose 5.5 hours before challenge, racemate 100 mg/kg, enantiomers 50 and 100 mg/kg): most effective in lowering the glucose; also recorded: lower glucose levels that persisted at 90-120 minutes
- insulin sensitivity (slope of decline in glucose after i.v. insulin), in words (Zucker fa/fa rats [4]): improved significantly; also recorded: significantly more insulin sensitive
- plasma cholesterol, in words [5]: significant decrease in plasma cholesterol
- plasma cholesterol, in words ([5]; listed as (−) enantiomer): plasma cholesterol declined with treatment; also recorded: most active of the species tested
- days of treatment with significantly lower plasma cholesterol vs control ([5]; Experiment II, 12.5 mg/kg/day (Low dose)): 7 days
- plasma cholesterol lowering, in words ([5]; Experiment II): much greater decline in plasma cholesterol
- plasma triglyceride, in words ([5]; Experiment II, listed as (−) enantiomer of halofenate): greater magnitude
- plasma cholesterol lowering, in words [5, 9]: greatest extent of cholesterol lowering
- plasma triglyceride, in words [5, 9]: lowest triglyceride levels of all the treatment groups; also recorded: significant lowering of plasma triglyceride
- plasma glucose concentrations compared to vehicle-treated animals, in words (ZDF rats): significantly reduced plasma glucose concentrations
- Plasma concentration of (+) halofenic acid ([6]; time 0 hour): BQL
- Plasma concentration of (−) halofenic acid ([6]; time 0 hour): BQL
- Plasma concentration of (+) halofenic acid ([6]; time 1 hour): BQL
- Plasma concentration of (+) halofenic acid ([6]; time 2 hours): BQL
- Plasma concentration of (+) halofenic acid ([6]; time 4 hours): BQL
- Plasma concentration of (+) halofenic acid ([6]; time 6 hours): BQL
- Plasma concentration of (+) halofenic acid ([6]; time 8 hours): BQL
- Plasma concentration of (+) halofenic acid ([6]; time 72 hours): BQL
- Plasma concentration of (+) halofenic acid ([6]; time 96 hours): BQL
- Plasma concentration of (+) halofenic acid ([6]; time 120 hours): BQL
- increase of plasma glucose levels with age, in words (C57BL/6J db/db mice): prevented or significantly delayed
- plasma insulin concentration, in words (C57BL/6J db/db mice): maintained the plasma insulin concentration
- plasma triglyceride concentration, in words (C57BL/6J db/db mice): alleviated the increase of plasma triglyceride concentration; also recorded: alleviated hyperlipidemia
- plasma uric acid levels, in words [7]: significantly reduced plasma uric acid levels
